In patent US20150223463A1, “SPIROCYCLIC ISOXAZOLINE DERIVATIVES FOR TREATMENT OF SEA LICE” (Zoetis LLC, priority 2012, published 2015):

Test system: Lepeophtheirus salmonis (sea lice)
Test: Sea lice bioassay, 24 hours exposure to test compound
Format: in vivo
Details: predominantly pre-adult and adult stage, generally chemical resistant strain

Emamectin
Adult Females (EC50) (adult female sea lice): 65 ppb | Adult Males (EC50) (adult male sea lice): 202 ppb
